Test results: patent US6720346B2, “Thiazole benzamide derivatives and pharmaceutical compositions for inhibiting cell proliferation” (Agouron Pharmaceuticals, Inc., priority 2001, dated 2004)

Key:
HCT-116 cell line = experiment: Inhibition of cell growth, MTT tetrazolium salt assay; assay type: cell-based; settings: for IC50: Homo sapiens, HCT-116, 120 h, MTT, three to five days
Outline: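 Cells in McCoy's 5A medium were given 4 h before compound addition in 0.5% (v/v) DMSO, then incubated 3–5 days at 37 °C, 5% CO2. After 4 h with 0.2 mg/mL MTT, DMSO-solubilized formazan was read at 540 nm; 50% and 90% growth-inhibitory concentrations came from semi-log plots against vehicle controls.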

human CDK4/cyclin D3 = target: T1, human CDK4/cyclin D3 (Homo sapiens, UniProt P11802); experiment: Inhibition of CDK4/cyclin D retinoblastoma kinase activity (Ki; % inhibition); assay type: biochemical; settings: for Ki: apparent Ki, CDK4/cyclin D3, Rb substrate
T1 construct: made in house; host or cells: insect cells co-infected with baculovirus vectors
Outline: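 Radiometric filter-binding read-out: Rb residues 386-928 phosphorylated by 5 nM CDK4/cyclin D3(1-264) from baculovirus-infected insect cells, 25 μM ATP, HEPES pH 7.4, 30 °C. Run 20 min, or 60 min for tight-binding inhibitors. Screening at 30 nM theoretical compound; apparent Ki by competitive-inhibition fitting.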

CDK2/cyclin A = target: T2, CDK2/cyclin A (Homo sapiens, UniProt P24941); experiment: Inhibition of CDK2/cyclin A retinoblastoma kinase activity (Ki; % inhibition); assay type: biochemical; settings: for Ki: apparent Ki, CDK2/cyclin A, Rb substrate
T2 construct: made in house; host or cells: CDK2: insect cells (baculovirus); cyclin A: E. coli
Outline: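 Apparent Ki values came from fitting concentration-dependent activity data to competitive (or competitive tight-binding) models, and % inhibition from single 30 nM screens of library compounds. Activity was measured as ³²P/³³P incorporation from 25 μM ATP into an Rb substrate by 10 or 19 nM CDK2/delta cyclin A at 30 °C over 60–75 min, pH 7.4.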

[1] = HCT-116 cells, 0.25 μM compound

T1 sequence (P11802 whole entry): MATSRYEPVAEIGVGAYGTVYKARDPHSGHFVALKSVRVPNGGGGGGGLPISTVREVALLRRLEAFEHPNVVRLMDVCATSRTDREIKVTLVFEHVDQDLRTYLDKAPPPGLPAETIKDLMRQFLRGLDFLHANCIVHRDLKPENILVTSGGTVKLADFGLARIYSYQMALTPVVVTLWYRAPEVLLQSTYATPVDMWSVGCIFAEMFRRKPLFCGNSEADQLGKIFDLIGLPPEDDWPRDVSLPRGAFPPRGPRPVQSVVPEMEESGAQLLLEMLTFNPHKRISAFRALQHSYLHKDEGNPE
T1 sequence (P30281 1-264 partner limits assumed): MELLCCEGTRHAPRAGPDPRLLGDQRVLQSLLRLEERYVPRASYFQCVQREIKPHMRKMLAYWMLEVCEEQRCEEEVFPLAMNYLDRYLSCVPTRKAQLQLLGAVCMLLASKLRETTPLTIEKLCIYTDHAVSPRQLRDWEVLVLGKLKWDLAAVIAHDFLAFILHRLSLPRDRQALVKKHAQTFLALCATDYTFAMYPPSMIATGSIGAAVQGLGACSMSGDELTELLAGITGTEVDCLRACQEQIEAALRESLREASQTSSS

SMILES	CDK4 % Inhibition at 0.03 μM (human CDK4/cyclin D3; 0.03 μM compound)	CDK2 % Inhibition at 0.03 μM (CDK2/cyclin A; 0.03 μM compound)	HCT-116 % Inhibition at 0.1 μM (HCT-116 cell line; HCT-116 cells, 0.1 μM compound)	HCT-116 % Inhibition at 0.25 μM (HCT-116 cell line; [1])	further results
CC(O)c1ccc(NC(=O)c2ccc(Nc3nc(N)c(C(=O)c4c(F)cccc4F)s3)cc2)cc1 (centres unmarked) [Example G94]	–	–	–	–	HCT-116 % Inhibition at 0.1 μM (HCT-116 cell line; HCT-116, at 0.1 μM): 38%; HCT-116 % Inhibition at 0.25 μM (HCT-116 cell line; HCT-116, at 0.25 μM): 80%; CDK4 % Inhibition at 0.03 μM (human CDK4/cyclin D3; at 0.03 μM): 4%; CDK2 % Inhibition at 0.03 μM (CDK2/cyclin A; at 0.03 μM): 10%
COc1cc(Nc2nc(N)c(C(=O)c3c(F)cccc3F)s2)ccc1C(=O)NC(C)CN(C)C (centres unmarked) [Example A60, 4-[4-Amino-5-(2,6-difluoro-benzoyl)-thiazol-2-ylamino]-N-(2RS-dimethylamino-1-methyl-ethyl)-2-methoxy-benzamide]	–	–	–	–	IC50 (HCT-116 cell line): 200 nM; Ki (human CDK4/cyclin D3): 31 nM; Ki (CDK2/cyclin A): 91 nM
CN(Cc1ccccc1)C(=O)c1ccc(Nc2nc(N)c(C(=O)c3c(F)cccc3F)s2)cc1 [Example G3]	–	–	–	–	HCT-116 % Inhibition at 0.25 μM (HCT-116 cell line; HCT-116, at 0.25 μM): 50%; CDK4 % Inhibition at 0.03 μM (human CDK4/cyclin D3; at 0.03 μM): 4%; CDK2 % Inhibition at 0.03 μM (CDK2/cyclin A; at 0.03 μM): −1%
CCOCCNC(=O)c1ccc(Nc2nc(N)c(C(=O)c3c(F)cccc3F)s2)cc1 [Example G136]	–	–	–	–	HCT-116 % Inhibition at 0.1 μM (HCT-116 cell line; HCT-116, at 0.1 μM): 0%; HCT-116 % Inhibition at 0.25 μM (HCT-116 cell line; HCT-116, at 0.25 μM): 49%; CDK4 % Inhibition at 0.03 μM (human CDK4/cyclin D3; at 0.03 μM): 12%; CDK2 % Inhibition at 0.03 μM (CDK2/cyclin A; at 0.03 μM): −4%
CCC(CO)NC(=O)c1ccc(Nc2nc(N)c(C(=O)c3c(F)cccc3F)s2)cc1 (centres unmarked) [Example G156]	–	–	–	–	HCT-116 % Inhibition at 0.1 μM (HCT-116 cell line; HCT-116, at 0.1 μM, 0.1 µM): 0%; HCT-116 % Inhibition at 0.25 μM (HCT-116 cell line; HCT-116, at 0.25 μM, 0.25 µM): 61%; CDK4 % Inhibition at 0.03 μM (human CDK4/cyclin D3; at 0.03 μM): 24%; CDK2 % Inhibition at 0.03 μM (CDK2/cyclin A; at 0.03 μM): 24%
NC(=O)c1cccc(NC(=O)c2ccc(Nc3nc(N)c(C(=O)c4c(F)cccc4F)s3)cc2)c1 [Example G6]	–	–	–	–	HCT-116 % Inhibition at 0.25 μM (HCT-116 cell line; HCT-116, at 0.25 μM): 47%; CDK4 % Inhibition at 0.03 μM (human CDK4/cyclin D3; at 0.03 μM): 10%; CDK2 % Inhibition at 0.03 μM (CDK2/cyclin A; at 0.03 μM): −1%
CN1CC[C@H](NC(=O)c2ccc(Nc3nc(N)c(C(=O)c4c(F)cccc4F)s3)cc2)C1 [Example A32, 4-[4-Amino-5-(2,6-difluoro-benzoyl)-thiazol-2-ylamino]-N-(1-methyl-pyrrolidin-3S-yl)-benzamide]	–	–	–	–	IC50 (HCT-116 cell line): 280 nM; Ki (human CDK4/cyclin D3): 6 nM; Ki (CDK2/cyclin A): 77 nM
CN(C)CCNC(=O)c1ccc(Nc2nc(N)c(C(=O)c3c(F)cccc3F)s2)cc1 [Example A4]	–	–	–	–	IC50 (HCT-116 cell line): 190 nM; Ki (human CDK4/cyclin D3): 16 nM; Ki (CDK2/cyclin A): 230 nM
Nc1nc(Nc2ccc(C(=O)N[C@H]3CCc4ccccc43)cc2)sc1C(=O)c1c(F)cccc1F [Example G184]	–	–	–	–	HCT-116 % Inhibition at 0.1 μM (HCT-116 cell line; HCT-116, at 0.1 μM): 17%; HCT-116 % Inhibition at 0.25 μM (HCT-116 cell line; HCT-116, at 0.25 μM): 58%; CDK4 % Inhibition at 0.03 μM (human CDK4/cyclin D3; at 0.03 μM): 36%; CDK2 % Inhibition at 0.03 μM (CDK2/cyclin A; at 0.03 μM): 34%
Cc1ccc(CNC(=O)c2ccc(Nc3nc(N)c(C(=O)c4c(F)cccc4F)s3)cc2)o1 [Example A6, 4-[4-Amino-5-(2,6-difluoro-benzoyl)-thiazol-2-ylamino]-N-(5-methyl-furan-2-ylmethyl)-benzamide]	–	–	–	–	IC50 (HCT-116 cell line): 220 nM; Ki (human CDK4/cyclin D3): 15 nM; Ki (CDK2/cyclin A): 7.5 nM
Nc1nc(Nc2ccc(C(=O)N3CCSCC3)cc2)sc1C(=O)c1c(F)cccc1F [Example G26]	–	–	–	–	HCT-116 % Inhibition at 0.25 μM (HCT-116 cell line; HCT-116, at 0.25 μM): 53%; CDK4 % Inhibition at 0.03 μM (human CDK4/cyclin D3; at 0.03 μM): 13%; CDK2 % Inhibition at 0.03 μM (CDK2/cyclin A; at 0.03 μM): 3%

The next lines start with results.

CDK4 % Inhibition at 0.03 μM (human CDK4/cyclin D3; 0.03 μM compound)	CDK2 % Inhibition at 0.03 μM (CDK2/cyclin A; 0.03 μM compound)	SMILES	HCT-116 % Inhibition at 0.1 μM (HCT-116 cell line; HCT-116 cells, 0.1 μM compound)	HCT-116 % Inhibition at 0.25 μM (HCT-116 cell line; [1])	further results
11%	−6%	Nc1nc(Nc2ccc(C(=O)Nc3ccc(Nc4ccccc4)cc3)cc2)sc1C(=O)c1c(F)cccc1F [Example G305]	29%	81%	–
8%	−3%	Cc1cc(C)cc(NC(=O)c2ccc(Nc3nc(N)c(C(=O)c4c(F)cccc4F)s3)cc2)c1 [Example G297]	0%	45%	–
9%	31%	Cc1cccc(CNC(=O)c2ccc(Nc3nc(N)c(C(=O)c4c(F)cccc4F)s3)cc2)c1 [Example G360]	18%	73%	–
4%	−12%	CC(C)c1cccc(NC(=O)c2ccc(Nc3nc(N)c(C(=O)c4c(F)cccc4F)s3)cc2)c1 [Example G389]	11%	61%	–
2%	−43%	Nc1nc(Nc2ccc(C(=O)N3CCN(CCO)CC3)cc2)sc1C(=O)c1c(F)cccc1F [Example G257]	33%	51%	–
19%	13%	Nc1nc(Nc2ccc(C(=O)NCCc3ccccc3F)cc2)sc1C(=O)c1c(F)cccc1F [Example G206]	13%	58%	–
8%	−2%	Nc1nc(Nc2ccc(C(=O)NCCCO)cc2)sc1C(=O)c1c(F)cccc1F [Example G334]	6%	41%	–
9%	−6%	Nc1nc(Nc2ccc(C(=O)Nc3cccc(F)c3)cc2)sc1C(=O)c1c(F)cccc1F [Example G289]	7%	62%	–
−2%	12%	CCOC(CCCNC(=O)c1ccc(Nc2nc(N)c(C(=O)c3c(F)cccc3F)s2)cc1)OCC [Example G392]	8%	49%	–
9%	14%	Cc1ccc(NC(=O)c2ccc(Nc3nc(N)c(C(=O)c4c(F)cccc4F)s3)cc2)cc1 [Example G197]	26%	61%	–
27%	18%	COc1ccc(NC(=O)c2ccc(Nc3nc(N)c(C(=O)c4c(F)cccc4F)s3)cc2)cn1 [Example G215]	22%	73%	–
13%	−10%	Nc1nc(Nc2ccc(C(=O)NCCC3OCCO3)cc2)sc1C(=O)c1c(F)cccc1F [Example G342]	20%	55%	–
36%	39%	Nc1nc(Nc2ccc(C(=O)NCc3ccc(Cl)cc3Cl)cc2)sc1C(=O)c1c(F)cccc1F [Example G236]	16%	66%	–
